Measurements: ChEMBL document CHEMBL1201862, “PubChem BioAssay data set” (2004)
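Method: 48-hour compound exposure of cells in 96-well plates, five concentrations, linear interpolation of endpoints. GI50 marks 50% less growth.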 Activity calls are given as the source filed them. Rule as the data show it: active = GI50 up to about 1.1 µM and inactive = higher.

What was measured:
Experiment in all cases: NCI tumour cell line growth inhibition, 48 h
SF-295 = system: SF-295
MOLT-4 = system: MOLT-4
TK-10 = system: TK-10
786-0 = system: 786-0
NCI-H23 = system: NCI-H23
SK-OV-3 = system: SK-OV-3
K562 = system: K562
Malme-3M = system: Malme-3M
KM12 = system: KM12
OVCAR-4 = system: OVCAR-4
OVCAR-3 = system: OVCAR-3
DLD-1 = system: DLD-1
SNB-75 = system: SNB-75
NCI-H460 = system: NCI-H460
LXFL 529 = system: LXFL 529
SF-539 = system: SF-539
M19-MEL = system: M19-MEL
SNB-19 = system: SNB-19
SF-268 = system: SF-268
SW-620 = system: SW-620
HCC 2998 = system: HCC 2998
UO-31 = system: UO-31
HL-60 = system: HL-60
ACHN = system: ACHN
M14 = system: M14
OVCAR-5 = system: OVCAR-5
A498 = system: A498
RPMI-8226 = system: RPMI-8226
HOP-62 = system: HOP-62
SK-MEL-28 = system: SK-MEL-28
XF498 = system: XF498
U-251 = system: U-251
OVCAR-8 = system: OVCAR-8
KM-20L2 = system: KM-20L2
NCI-H226 = system: NCI-H226
SN12C = system: SN12C
CCRF-CEM = system: CCRF-CEM
EKVX = system: EKVX
SK-MEL-2 = system: SK-MEL-2
SNB-78 = system: SNB-78
NCI-H522 = system: NCI-H522
HT-29 = system: HT-29
LOX IMVI = system: LOX IMVI
IGROV-1 = system: IGROV-1
COLO 205 = system: COLO 205
DMS-114 = system: DMS-114
SK-MEL-5 = system: SK-MEL-5
RXF 393 = system: RXF 393
CAKI-1 = system: CAKI-1
A549 = system: A549
HOP-92 = system: HOP-92
UACC-257 = system: UACC-257
DMS-273 = system: DMS-273
UACC-62 = system: UACC-62
HCT-15 = system: HCT-15
DU-145 = system: DU-145
HCT-116 = system: HCT-116
SR = system: SR
NCI/ADR-RES = system: NCI/ADR-RES
MDA-MB-231 = system: MDA-MB-231
MDA-MB-435 = system: MDA-MB-435
T47D = system: T47D
Hs-578T = system: Hs-578T
BT-549 = system: BT-549
PC-3 = system: PC-3
MDA-N = system: MDA-N
MCF7 = system: MCF7

For `CC1=C(C(=O)Nc2cc(F)c(F)cc2F)C(c2ccc3c(c2)OCO3)C(C(=O)Nc2cc(F)c(F)cc2F)=C(C)N1`, the GI50 (SF-295) was 21.9 µM (inactive), the GI50 (MOLT-4) was 14.2 µM (inactive) and the GI50 (TK-10) was 23.9 µM (inactive). The GI50 (786-0) was 18.3 µM (inactive), the GI50 (NCI-H23) was 19.8 µM (inactive) and the GI50 (SK-OV-3) was 19.4 µM (inactive). The GI50 (K562) was 17.9 µM (inactive), the GI50 (Malme-3M) was 23.3 µM (inactive) and the GI50 (KM12) was 19.2 µM (inactive). For the same molecule, the GI50 (OVCAR-4) was 19.6 µM (inactive), the GI50 (OVCAR-3) was 15.7 µM (inactive) and the GI50 (DLD-1) was 18.9 µM (inactive). The GI50 (SNB-75) was 13.1 µM (inactive), the GI50 (NCI-H460) was 25.2 µM (inactive) and the GI50 (LXFL 529) was 23.2 µM (inactive). For the same molecule, the GI50 (SF-539) was 27.5 µM (inactive), the GI50 (M19-MEL) was 20.7 µM (inactive) and the GI50 (SNB-19) was 38.4 µM (inactive). The GI50 (SF-268) was 23.3 µM (inactive), the GI50 (SW-620) was 33.5 µM (inactive) and the GI50 (HCC 2998) was 19.2 µM (inactive). For the same molecule, the GI50 (UO-31) was 12.9 µM (inactive), the GI50 (HL-60) was 13.8 µM (inactive) and the GI50 (ACHN) was 19.1 µM (inactive). For the same molecule, the GI50 (M14) was 24.2 µM (inactive), the GI50 (OVCAR-5) was 19.9 µM (inactive) and the GI50 (A498) was 21 µM (inactive). The GI50 (RPMI-8226) was 16 µM (inactive), the GI50 (HOP-62) was 16.8 µM (inactive) and the GI50 (SK-MEL-28) was 33.2 µM (inactive). The GI50 (XF498) was 6.34 µM (inactive), the GI50 (U-251) was 27.2 µM (inactive) and the GI50 (OVCAR-8) was 31 µM (inactive). For the same molecule, the GI50 (KM-20L2) was 22.3 µM (inactive), the GI50 (NCI-H226) was 23.9 µM (inactive) and the GI50 (SN12C) was 18.7 µM (inactive). For the same molecule, the GI50 (CCRF-CEM) was 19.5 µM (inactive), the GI50 (EKVX) was 18 µM (inactive) and the GI50 (SK-MEL-2) was 18 µM (inactive). The GI50 (SNB-78) was 17.2 µM (inactive), the GI50 (NCI-H522) was 14.9 µM (inactive) and the GI50 (HT-29) was 27.4 µM (inactive). For the same molecule, the GI50 (LOX IMVI) was 14.4 µM (inactive), the GI50 (IGROV-1) was 28.7 µM (inactive) and the GI50 (COLO 205) was 21.8 µM (inactive). For the same molecule, the GI50 (DMS-114) was 17.7 µM (inactive), the GI50 (SK-MEL-5) was 19.4 µM (inactive) and the GI50 (RXF 393) was 11.5 µM (inactive). The GI50 (CAKI-1) was 11.8 µM (inactive), the GI50 (A549) was 22.6 µM (inactive) and the GI50 (HOP-92) was 2.72 µM (inactive). The GI50 (UACC-257) was 25.9 µM (inactive).
For `COC(=O)C1=C(C(=O)OC)C2=S(SC3=C2CCCC3)S1` (stereo unspecified), the GI50 (SF-295) was 46.1 µM (inactive), the GI50 (MOLT-4) was 12 µM (inactive) and the GI50 (TK-10) was 30.1 µM (inactive). For the same molecule, the GI50 (786-0) was 4.11 µM (inactive), the GI50 (NCI-H23) was 24.1 µM (inactive) and the GI50 (SK-OV-3) was > 100 µM (inactive). The GI50 (K562) was 4.35 µM (inactive), the GI50 (Malme-3M) was 20.1 µM (inactive) and the GI50 (KM12) was 20.8 µM (inactive). The GI50 (DMS-273) was 13.1 µM (inactive), the GI50 (OVCAR-4) was 19 µM (inactive) and the GI50 (OVCAR-3) was 16.4 µM (inactive). For the same molecule, the GI50 (DLD-1) was 24 µM (inactive), the GI50 (SNB-75) was 12.1 µM (inactive) and the GI50 (NCI-H460) was 28.1 µM (inactive). For the same molecule, the GI50 (LXFL 529) was 5.05 µM (inactive), the GI50 (SF-539) was 25.1 µM (inactive) and the GI50 (M19-MEL) was 26.5 µM (inactive). The GI50 (SNB-19) was > 100 µM (inactive), the GI50 (SF-268) was 37.6 µM (inactive) and the GI50 (SW-620) was 0.467 µM (active). For the same molecule, the GI50 (HCC 2998) was > 100 µM (inactive), the GI50 (UO-31) was 68.1 µM (inactive) and the GI50 (HL-60) was 9.48 µM (inactive). The GI50 (ACHN) was 28.1 µM (inactive), the GI50 (M14) was 24.8 µM (inactive) and the GI50 (OVCAR-5) was 27.4 µM (inactive). The GI50 (RPMI-8226) was 3.26 µM (inactive), the GI50 (HOP-62) was > 100 µM (inactive) and the GI50 (SK-MEL-28) was 29.7 µM (inactive). For the same molecule, the GI50 (U-251) was 19.6 µM (inactive), the GI50 (OVCAR-8) was 12.9 µM (inactive) and the GI50 (KM-20L2) was 24.6 µM (inactive). The GI50 (UACC-62) was 26 µM (inactive), the GI50 (SN12C) was 25.5 µM (inactive) and the GI50 (CCRF-CEM) was 2.98 µM (inactive). The GI50 (EKVX) was > 100 µM (inactive), the GI50 (SK-MEL-2) was 23.1 µM (inactive) and the GI50 (NCI-H522) was 2.2 µM (inactive). The GI50 (HT-29) was 18.7 µM (inactive), the GI50 (LOX IMVI) was 2.79 µM (inactive) and the GI50 (IGROV-1) was 85.7 µM (inactive). The GI50 (COLO 205) was 23.4 µM (inactive), the GI50 (HCT-15) was 13.3 µM and the GI50 (SK-MEL-5) was 0.378 µM (active). For the same molecule, the GI50 (RXF 393) was 13.3 µM (inactive), the GI50 (CAKI-1) was 20 µM (inactive) and the GI50 (A549) was 36.1 µM (inactive). The GI50 (HOP-92) was 6.05 µM (inactive) and the GI50 (UACC-257) was 37.2 µM (inactive).
In the case of `S=C=NCc1ccccc1` [BENZYL ISOTHIOCYANATE], the GI50 (SF-295) is reported as 4.82 µM (inactive), the GI50 (MOLT-4) is reported as 1.31 µM (inactive) and the GI50 (TK-10) is reported as 4.37 µM (inactive). The GI50 (786-0) was 0.422 µM (active), the GI50 (NCI-H23) was 3.81 µM (inactive) and the GI50 (DU-145) was 4.13 µM (inactive). The GI50 (SK-OV-3) was 11 µM (inactive), the GI50 (K562) was 0.697 µM (active) and the GI50 (Malme-3M) was 3.1 µM (inactive). For the same molecule, the GI50 (KM12) was 0.895 µM (active), the GI50 (HCT-116) was 0.604 µM (active) and the GI50 (SR) was 0.794 µM (active). For the same molecule, the GI50 (OVCAR-4) was 3.8 µM (inactive), the GI50 (OVCAR-3) was 2.75 µM (inactive) and the GI50 (SNB-75) was 4.27 µM (inactive). The GI50 (NCI-H460) was 6.27 µM (inactive), the GI50 (NCI/ADR-RES) was 3.43 µM (inactive) and the GI50 (SF-539) was 1.82 µM (inactive). For the same molecule, the GI50 (SNB-19) was 4.71 µM (inactive), the GI50 (MDA-MB-231) was 1.8 µM (inactive) and the GI50 (SF-268) was 3.35 µM (inactive). The GI50 (SW-620) was 2.35 µM (inactive), the GI50 (HCC 2998) was 8.28 µM (inactive) and the GI50 (UO-31) was 2.72 µM (inactive). The GI50 (HL-60) was 1.86 µM (inactive), the GI50 (ACHN) was 3.99 µM (inactive) and the GI50 (M14) was 1.67 µM (inactive). For the same molecule, the GI50 (OVCAR-5) was 10.9 µM (inactive), the GI50 (A498) was 4.13 µM (inactive) and the GI50 (RPMI-8226) was 0.456 µM (active). For the same molecule, the GI50 (HOP-62) was 3.05 µM (inactive), the GI50 (SK-MEL-28) was 3.08 µM (inactive) and the GI50 (MDA-MB-435) was 2.16 µM (inactive). The GI50 (T47D) was 10.4 µM (inactive), the GI50 (U-251) was 3.07 µM (inactive) and the GI50 (OVCAR-8) was 2.62 µM (inactive). The GI50 (UACC-62) was 3.32 µM (inactive), the GI50 (NCI-H226) was 10.1 µM (inactive) and the GI50 (Hs-578T) was 7.08 µM (inactive). The GI50 (SN12C) was 3.7 µM (inactive), the GI50 (CCRF-CEM) was 0.454 µM (active) and the GI50 (EKVX) was 14.6 µM (inactive). The GI50 (SK-MEL-2) was 6.35 µM (inactive), the GI50 (BT-549) was 2.32 µM (inactive) and the GI50 (NCI-H522) was 1.22 µM (inactive). For the same molecule, the GI50 (HT-29) was 2.47 µM (inactive), the GI50 (PC-3) was 4.1 µM (inactive) and the GI50 (LOX IMVI) was 0.796 µM (active). The GI50 (IGROV-1) was 2.51 µM (inactive), the GI50 (COLO 205) was 1.51 µM (inactive) and the GI50 (HCT-15) was 3.36 µM. The GI50 (SK-MEL-5) was 2.81 µM (inactive), the GI50 (RXF 393) was 1.62 µM (inactive) and the GI50 (MDA-N) was 1.18 µM (inactive). For the same molecule, the GI50 (CAKI-1) was 1.85 µM (inactive), the GI50 (A549) was 4.49 µM (inactive) and the GI50 (HOP-92) was 5.77 µM (inactive). For the same molecule, the GI50 (UACC-257) was 3.15 µM (inactive) and the GI50 (MCF7) was 3.23 µM (inactive).
